Experimental findings from patent US10124033B2, “Peptides and methods of use” (BAXALTA INCORPORATED, priority 2014, dated 2018) are described below.

In experiment [1] the target is T1, human full-length Protein S (Homo sapiens, UniProt P07225).
T1 construct: using human full-length Protein S and human GAS6
T1 sequence (P07225 41-676 limits assumed): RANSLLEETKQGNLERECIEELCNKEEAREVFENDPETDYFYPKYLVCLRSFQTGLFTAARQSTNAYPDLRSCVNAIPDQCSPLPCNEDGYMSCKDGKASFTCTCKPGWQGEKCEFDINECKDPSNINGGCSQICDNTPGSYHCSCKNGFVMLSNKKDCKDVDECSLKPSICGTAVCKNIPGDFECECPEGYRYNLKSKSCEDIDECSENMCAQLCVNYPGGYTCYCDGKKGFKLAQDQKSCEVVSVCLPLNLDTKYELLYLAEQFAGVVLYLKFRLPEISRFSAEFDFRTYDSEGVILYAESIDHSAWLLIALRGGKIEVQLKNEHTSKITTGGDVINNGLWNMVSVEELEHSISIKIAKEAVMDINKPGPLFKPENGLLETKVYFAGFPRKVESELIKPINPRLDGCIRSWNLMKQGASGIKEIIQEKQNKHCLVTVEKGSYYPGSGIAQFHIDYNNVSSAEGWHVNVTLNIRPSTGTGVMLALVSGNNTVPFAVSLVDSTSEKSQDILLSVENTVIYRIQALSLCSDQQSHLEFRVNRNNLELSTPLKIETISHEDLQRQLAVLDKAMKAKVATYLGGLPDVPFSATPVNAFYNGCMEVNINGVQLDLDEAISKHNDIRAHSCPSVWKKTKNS
The experiment is described as follows: Biacore (surface plasmon resonance) on immobilized Protein S. It is filed as binding. Particulars: for koff: read-out: koff; for kon: read-out: kon. The method, then: (§1) Protein S affinity also was determined via Biacore (Biacore 3000 or Biacore T200) using human full-length Protein S and human GAS6. Briefly, 1000 RU of Protein S or GAS6 were immobilized on a CMS chip. In order to probe the kinetics of Protein S binding peptides to Protein S, the peptides were injected at various concentrations in a HBS-buffer containing 3 mM CaCl2 and 1% DMSO to the flow cell and allowed to interact with the immobilized proteins on the sensor chip. The chip could be regenerated with 4 M MgCl2 in HBS-buffer. Sensorgrams were fitted to a Langmuir binding model for the determination of kon and koff and the calculation of KD. Peptides were tested on their specificity to Protein S with peptide binding studies on the anti-target GAS6.
For orientation: SPR reads the build-up and loss of mass on a sensor chip optically.

The next experiment concerns the target T2, human GAS6 (Homo sapiens, UniProt Q14393).
T2 sequence (Q14393 31-678): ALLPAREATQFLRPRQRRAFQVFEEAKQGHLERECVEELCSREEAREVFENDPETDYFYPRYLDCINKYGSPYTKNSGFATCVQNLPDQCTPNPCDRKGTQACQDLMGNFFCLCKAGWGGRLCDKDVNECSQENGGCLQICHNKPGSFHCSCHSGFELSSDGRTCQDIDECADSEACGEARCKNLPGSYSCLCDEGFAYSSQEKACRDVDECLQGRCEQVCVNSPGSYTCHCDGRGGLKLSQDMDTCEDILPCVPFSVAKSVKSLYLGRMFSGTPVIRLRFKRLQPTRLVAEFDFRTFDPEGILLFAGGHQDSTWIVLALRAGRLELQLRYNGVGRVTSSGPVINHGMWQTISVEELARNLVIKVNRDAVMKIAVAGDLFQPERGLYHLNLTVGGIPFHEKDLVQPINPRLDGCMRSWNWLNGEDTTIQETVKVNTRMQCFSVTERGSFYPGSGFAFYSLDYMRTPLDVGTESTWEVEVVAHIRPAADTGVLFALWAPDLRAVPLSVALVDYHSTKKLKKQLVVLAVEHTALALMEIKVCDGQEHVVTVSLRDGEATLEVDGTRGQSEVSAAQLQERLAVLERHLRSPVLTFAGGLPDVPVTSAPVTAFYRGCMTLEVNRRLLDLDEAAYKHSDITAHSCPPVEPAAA
The experiment can be described thus: Biacore binding to anti-target GAS6. The method, then:
as §1
Interactions with the anti-target GAS6 were measured via Biacore (surface plasmon resonance) (see Example 2). The maximum signal from the interaction of the peptides with human GAS6 was much lower than the signals obtained with Protein S as interaction partner. Kinetic analysis of the low GAS6 binding signals was error prone, and sensorgrams were reviewed visually to estimate anti-target binding. […] The affinity of JBS2572 for the anti-target was at least 10 times less (indeed, at least 150 times less) than the affinity of the peptides for human Protein S. The data provided by this example confirm that peptides described herein specifically bind Protein S.

The next experiment concerns the target T3, Protein S (Homo sapiens, UniProt P07225).
T3 sequence (P07225 41-676 limits assumed): T1 sequence (P07225 41-676 limits assumed)
The experiment can be described thus: competition (IC50) ELISA with biotinylated tracer peptide JBS0684. It is filed as binding. The method, then: The new peptide candidates were synthesized (purity >60%) and screened for affinity in a competitive binding assay (ELISA IC50) and activity in a thrombin generation assay (CAT). The competition (IC50) ELISA was performed using biotinylated tracer peptide JBS0684 to compete for Protein S-binding with candidate peptides. Peptides that compete with the tracer bind the same region of Protein S as the tracer (and each other). Ninety-six well PolySorp plates (Nunc) were coated with 3 μg/mL Protein S in coating buffer (15 mM Na2CO3, 35 mM NaHCO3, pH 9.6) over night. Plates were washed three times with wash buffer (HNaT: 175 mM NaCl, 25 mM HEPES, 5 mM CaCl2, 0.1% Tween 80, pH 7.35), and blocked with 100 μl 2% yeast extract in HNaT for at least 1 hour. Plates were then washed three times with HNaT. JBS0684 was applied at a concentration corresponding to the EC90 value determined in the binding ELISA. A competitor stock solution of peptide (10 mM) was diluted 1/33.3 in HNaT without HSA, and a serial ⅓ dilution was prepared with HNaT with 3% DMSO. The dilution was further diluted with the biotinylated tracer peptide in a ratio of 1:6 (20 μl competitor dilution and 100 μl tracer peptide). The mixture of competitor and tracer peptide was applied to the Protein S-coated microtiter plate and incubated for 1.5 hours. The plates were washed three times with HNaT. Peptide-Protein S binding was detected by applying HRP-conjugated streptavidin to the microtiter plate, incubating the mixture for one hour, washing the plate three times with HNaT, applying TMB (3,3′5,5′-Tetramethylbenzidin), and detecting the subsequent chromogenic conversion of TMB by HRP. IC50 measurements of peptides are provided herein (see, e.g., Table 3).
(In general: ELISA stands for enzyme-linked immunosorbent assay.)

Like-named read-outs stand apart in the source and are kept apart here. Residues, ends and D or L forms follow the SMILES beside them.

As usually defined, the Kd is the concentration at which binding is half-saturated. One may read the koff as a measure of how fast the partners let go of each other. The term kon denotes the second-order rate constant of association. The IC50 is the midpoint of a concentration-inhibition curve. A high value points to weaker potency in that assay. For the compound `CC(=O)N[C@H](C(=O)NCC(=O)N[C@@H](CC(C)C)C(=O)N[C@H](C(=O)N[C@@H](CO)C(=O)N[C@@H](C)C(=O)NCC(=O)N[C@@H](Cc1c[nH]c2ccccc12)C(=O)N[C@@H](Cc1ccc(O)cc1)C(=O)N[C@@H](CC(=O)O)C(=O)N[C@@H](Cc1ccc(O)cc1)C(=O)N[C@@H](CC(N)=O)C(=O)N[C@@H](Cc1ccccc1)C(=O)N[C@@H](CC(=O)O)C(=O)N[C@@H](Cc1c[nH]cn1)C(=O)N[C@@H](Cc1ccc(O)cc1)C(=O)N[C@@H](CCCNC(=N)N)C(=O)N[C@@H](CCC(=O)O)C(=O)N[C@@H](Cc1ccccc1)C(=O)N[C@H](C(N)=O)[C@@H](C)O)C(C)C)[C@@H](C)O` [JBS2572] (Ac-TGLVSAGWYDYNFDHYREFT-NH2), the dissociation constant Kd in experiment [1] (25° C., read-out: KD for binding to Protein S) was determined as 6 nM; in experiment [1] (37° C., read-out: KD), 4 nM; in experiment [1] (Biacore, affinity-matured and modified peptides, read-out: KD) it was 4 nM. The values for the koff in experiment [1] (25° C.) and in experiment [1] (37° C.) were 0.00148 s⁻¹ and 0.00431 s⁻¹, respectively. In addition, the kon turned out to be 248000 M⁻¹ s⁻¹ in experiment [1] (25° C.) and 1.14e+06 M⁻¹ s⁻¹ in experiment [1] (37° C.). Besides, the “affinity for anti-target GAS6 relative to human Protein S (times less)” value at human GAS6 is “at least 150 times”. The “binding to GAS6” value at human GAS6 (1 μM peptide, sensorgrams reviewed visually) is recorded as “no specific binding”. Besides, the “increase of affinity compared to JBS2512” value at Protein S (His to Leu substitution at position 3) came out at 1.6 fold. Moreover, the IC50 at Protein S (competition ELISA, tracer JBS0684, re-synthesized peptides) amounted to 2.5 ± 0.3 nM.
